Laboratory results reported in patent US10106542B2, “Substituted 6,7-dihydropyrazolo[1,5-a]pyrazines as negative allosteric modulators of mGluR2 receptors” (Janssen Pharmaceutica NV, priority 2013, dated 2018).

What was measured:
rats = assay: Reversal of the effect of the mGluR2 PAM JNJ-42153605 on scopolamine-induced hyperlocomotion; format: in vivo; settings: Rattus norvegicus, 1 h, test compound 60 min before recording, criterion total distance >1500 cm
Method: 2) Reversal of the Effect of the mGluR2 PAM JNJ-42153605 on Scopolamine-Induced Hyperlocomotion Apparatus
Motor activity was measured in microprocessor-based motor activity arenas (closed gray PVC cylinders with a height of 39 cm and a diameter of 31 cm). Each arena was placed on an infrared LED (8×8 LEDs) lit box (white PVC squared box; 40×40 cm^2; height 12.5 cm. An infrared-sensitive tube camera and a white light source were mounted to the ceiling above the observation chamber to track the animal. The total distance traveled (cm) was recorded and analyzed using the Noldus Ethovision XT Video Tracking System (Version 7.0.418; Noldus, Wageningen, The Netherlands). The intensity of the light within the activity cages (measured in the centre at the level of the floor) ranged between 4 and 8 LUX.
The rats were pretreated with test compound or vehicle at 60 min before the start of the activity recordings and placed into individual cages. The rats were challenged with JNJ-42153605 (3-(cyclopropylmethyl)-7-(4-phenylpiperidin-1-yl)-8-(trifluoromethyl)[1,2,4]triazolo[4,3-a]pyridine; WO2010/130424; Cid et al. J. Med. Chem. 2012, 55, 8770-8789) (20 mg/kg, i.v.) 30 min before the start of the activity recording combined with scopolamine (0.16 mg/kg, i.v.) just before the start of the activity measurements Immediately after the injection of scopolamine, the rats were placed into the activity monitors and total distance travelled over the first 30 min was measured.
Animals receiving the combination of JNJ-42153605 and scopolamine (n=433) almost always travelled a distance of less than 1500 cm (<1500 cm) (only 2.5% of the control rats travelled a distance of more than 1500 cm (>1500 cm)). On the other hand, animals challenged with scopolamine alone (n=215) always travelled a total distance of more than 1500 cm (>1500 cm) and almost always (in 95.8% of the rats) a distance of more than 4400 cm (>4400 cm). […] For reversal of the inhibitory effect of JNJ-42153605 on the scopolamine-induced hyperlocomotion, two all-or-none criteria were adopted: (1) reversal: total distance >1500 cm; (2) normalization: total distance >4400 cm.

human mGlu2 receptor = molecular target: T1, human mGlu2 receptor (Homo sapiens, UniProt Q14416); assay: [35S]GTPγS binding assay (mGluR2 negative allosteric modulation); format: biochemical; settings: for IC50: membranes from CHO cells transfected with human mGlu2 receptor, glutamate 60 μM, pIC50 = −log IC50 (M), read-out: GTPγS - hmGluR2 anGT pIC50 (converted); for Emax: relative maximal effect: maximal % inhibition relative to the control glutamate response, read-out: GTPγS - hmGluR2 anGT Emax
T1 construct: expressed in transfected cells; host or cells: CHO cells (membrane preparation)
Summary of the method: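 Membranes from butyrate-stimulated CHO cells expressing human mGlu2; 7 μg protein in HEPES pH 7.4, 100 mM NaCl, 3 mM MgCl2, 10 μM GDP, 10 μg/ml saponin. Compound tested against EC80-equivalent glutamate; 0.1 nM [35S]GTPγS, 30 min, 30 °C; filtration, scintillation counting. Data as % of control glutamate response.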

T1 sequence (Q14416 19-872): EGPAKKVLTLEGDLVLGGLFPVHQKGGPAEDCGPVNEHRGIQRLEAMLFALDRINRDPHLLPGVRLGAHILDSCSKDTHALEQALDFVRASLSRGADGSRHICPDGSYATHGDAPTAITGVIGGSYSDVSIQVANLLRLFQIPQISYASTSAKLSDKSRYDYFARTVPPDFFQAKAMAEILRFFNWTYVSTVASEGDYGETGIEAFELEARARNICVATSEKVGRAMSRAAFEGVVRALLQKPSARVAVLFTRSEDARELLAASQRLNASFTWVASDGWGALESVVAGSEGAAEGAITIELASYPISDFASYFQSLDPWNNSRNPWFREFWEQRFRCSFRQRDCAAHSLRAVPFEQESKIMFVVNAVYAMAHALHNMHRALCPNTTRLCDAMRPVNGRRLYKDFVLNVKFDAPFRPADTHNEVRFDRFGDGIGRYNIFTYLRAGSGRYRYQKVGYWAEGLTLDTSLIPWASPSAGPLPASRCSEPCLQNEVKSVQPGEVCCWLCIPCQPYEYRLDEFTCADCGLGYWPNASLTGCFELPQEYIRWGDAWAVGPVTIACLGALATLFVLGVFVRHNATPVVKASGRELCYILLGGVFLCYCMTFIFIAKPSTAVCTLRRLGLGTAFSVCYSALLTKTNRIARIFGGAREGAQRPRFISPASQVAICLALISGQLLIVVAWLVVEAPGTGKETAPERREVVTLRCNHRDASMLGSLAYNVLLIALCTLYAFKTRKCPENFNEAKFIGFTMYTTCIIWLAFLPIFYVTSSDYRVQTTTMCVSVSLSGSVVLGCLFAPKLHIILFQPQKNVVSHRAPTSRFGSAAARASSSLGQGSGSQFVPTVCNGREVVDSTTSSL

| Structure (SMILES) | ED50 (rats; Route PO) [mg/kg] | IC50 (human mGlu2 receptor) [M] | Emax (human mGlu2 receptor) [%] | melting point | ED50 (rats; Route SC) [mg/kg] |
| --- | --- | --- | --- | --- | --- |
| Cc1cc(-c2cnn3c2C(=O)N(c2ccc(C(F)(F)F)c(Cl)c2)C[C@@H]3C)ccn1 [compound 3] | 1.99 | 1.78e-09 | 106 | – | – |
| Cc1cc(-c2cnn3c2C(=O)N(c2ccc(S(F)(F)(F)(F)F)cc2)C[C@@H]3C)ccn1 [compound 4] | 1.26 | 3.31e-09 | 104 | 247 °C | – |
| Cc1cc(-c2cnn3c2C(=O)N(c2ccc(Cl)c(Cl)c2)C[C@@H]3C)ccn1 [compound 6] | 0.8 | 5.01e-09 | 106 | – | – |
| Cc1cc(-c2cnn3c2C(=O)N(c2ccc(Cl)c(C(F)(F)F)c2)C[C@@H]3C)ccn1 [compound 9] | ≥ 2.5 | 1.05e-08 | 103 | 143.6 °C | – |
| Cc1cc(-c2cnn3c2C(=O)N(c2ccc(C(F)(F)F)c(F)c2)C[C@@H]3C)ccn1 [compound 10] | 0.79 | 1.17e-08 | 104 | – | – |
| COc1cc(N2C[C@H](C)n3ncc(-c4ccnc(C)c4)c3C2=O)ccc1C(F)(F)F [compound 12] | 1.25 | 1.95e-08 | 104 | – | – |
| Cc1cc(-c2cnn3c2C(=O)N(c2ccc(C(F)(F)F)c(C#N)c2)C[C@@H]3C)ccn1 [compound 13] | 7.94 | 2.95e-08 | 103 | 128.9 °C | – |
| Cc1cc(-c2cnn3c2C(=O)N(c2ccc(C(F)(F)F)cc2)C[C@@H]3C)cc(C)n1 [compound 14] | 5 | 2.4e-08 | 104 | – | – |
| Cc1cc(-c2cnn3c2C(=O)N(c2cccc(Cl)c2)C[C@@H]3C)ccn1 [compound 16] | – | 5.13e-08 | 102 | – | ≥ 10 |
| CCOc1cc(N2C[C@H](C)n3ncc(-c4ccnc(C)c4)c3C2=O)ccc1Cl [compound 18] | ≥ 10 | 5.25e-08 | 102 | 98.5 °C | – |
| COc1cc(N2C[C@H](C)n3ncc(-c4ccnc(C)c4)c3C2=O)ccc1Cl [compound 19] | ≥ 10 | 6.92e-08 | 105 | 137 °C | – |
| Cc1cc(-c2cnn3c2C(=O)N(c2ccc(C(F)(F)F)c(Cl)c2)C[C@@H]3C)cc(C)n1 [compound 43] | 1.26 | 2.88e-09 | 107 | – | – |
| Cc1cc(-c2cnn3c2C(=O)N(c2ccc(Cl)c(Cl)c2)C[C@@H]3C)cc(C)n1 [compound 47] | 1.99 | 6.46e-09 | 105 | – | – |
| CNc1cc(-c2cnn3c2C(=O)N(c2ccc(C(F)(F)F)c(Cl)c2)C[C@@H]3C)ccn1 [compound 103] | 0.96 | – | – | – | – |
| COc1cc(-c2cnn3c2C(=O)N(c2ccc(C(F)(F)F)c(Cl)c2)C[C@@H]3C)ccn1 [compound 104] | ≥ 2.5 | 3.72e-09 | 108 | – | – |
| COc1cc(-c2cnn3c2C(=O)N(c2ccc(Cl)c(Cl)c2)C[C@@H]3C)ccn1 [compound 142] | 1.99 | 6.61e-09 | 105 | – | – |
| Cc1cc(-c2cnn3c2C(=O)N(c2ccc(C(F)(F)F)c(Cl)n2)C[C@@H]3C)ccn1 [compound 188, (7S)-5-[6-chloro-5-(trifluoromethyl)-2-pyridyl]-7-methyl-3-(2-methyl-4-pyridyl)-6,7-dihydropyrazolo[1,5-a]pyrazin-4-one] | – | 4.07e-09 | 108 | 161.4 °C | – |
| CCOc1nc(N2C[C@H](C)n3ncc(-c4ccnc(C)c4)c3C2=O)ccc1C(F)(F)F [compound 189, (7S)-5-[6-Ethoxy-5-(trifluoromethyl)-2-pyridyl]-7-methyl-3-(2-methyl-4-pyridyl)-6,7-dihydropyrazolo[1,5-a]pyrazin-4-one] | – | 4.07e-08 | 102 | 142.4 °C | – |

| Structure (SMILES) | ED50 (rats; Route PO) [mg/kg] | IC50 (human mGlu2 receptor) [M] | Emax (human mGlu2 receptor) [%] | melting point | ED50 (rats; Route SC) [mg/kg] |
| --- | --- | --- | --- | --- | --- |
| CCOc1ccc(N2C[C@H](C)n3ncc(-c4ccnc(C)c4)c3C2=O)nc1F [compound 191] | – | 1.07e-06 | 109 | 60.7 °C | – |
| C[C@H]1CN(c2ccc(C(F)(F)F)cn2)C(=O)c2c(-c3ccnc(F)c3)cnn21 [compound 197] | – | 1.51e-07 | 104 | 146.6 °C | – |
| Cc1cc(-c2cnn3c2C(=O)N(c2cc(Cl)c(C(F)(F)F)cn2)C[C@@H]3C)ccn1 [compound 204, (7S)-5-[4-Chloro-5-(trifluoromethyl)-2-pyridyl]-7-methyl-3-(2-methyl-4-pyridyl)-6,7-dihydropyrazolo[1,5-a]pyrazin-4-one] | – | 4.9e-09 | 107 | 292.8 °C | – |
| CCOc1nc(N2C[C@H](C)n3ncc(-c4cc(C)nc(C)c4)c3C2=O)ccc1C(F)(F)F [compound 205] | – | 1.02e-08 | 102 | 179.2 °C | – |
| COc1nc(N2C[C@H](C)n3ncc(-c4ccnc(C)c4)c3C2=O)ccc1C(F)(F)F [compound 207] | – | 3.8e-09 | 109 | 147.6 °C | – |
| CCOc1nc(N2C[C@H](C)n3ncc(-c4ccncc4)c3C2=O)ccc1C(F)(F)F [compound 208] | – | 2.24e-08 | 107 | 141.3 °C | – |
| CNc1cc(-c2cnn3c2C(=O)N(c2ccc(C(F)(F)F)cn2)C[C@@H]3C)ccn1 [compound 210] | – | 2.34e-08 | 105 | 125.66 °C (dec.) | – |
| Cc1cc(-c2cnn3c2C(=O)N(c2ccc(C(F)(F)F)cc2)CC3C(C)O)ccn1 (stereo not drawn) [compound 217] | – | 4.47e-06 | 97 | 255.5 °C | – |
| CC(=O)N1CC(c2ccc(-c3cnn4c3C(=O)N(c3ccc(C(F)(F)F)cc3)C[C@@H]4C)cn2)C1 [compound 235] | – | 1.26e-06 | 102 | 93 °C | – |
| Cc1cc(-c2cnn3c2C(=O)N(c2ccc(SC(F)(F)F)cc2)C[C@@H]3C)ccn1 [compound 236] | > 2.5 | 7.24e-09 | 105 | – | – |
| COc1cc(-c2cnn3c2C(=O)N(c2ccc(C(F)(F)F)c(OC)n2)C[C@@H]3C)ccn1 [compound 240] | – | 6.76e-09 | 109 | 107.87 °C (dec.) | – |
| CNc1cc(-c2cnn3c2C(=O)N(c2ccc(C(F)(F)F)cc2)C[C@@H]3C)cc(OC)n1 [compound 242] | > 2.5 | 1.29e-08 | 110 | – | – |
| CNc1cc(-c2cnn3c2C(=O)N(c2ccc(C(F)(F)F)c(C)c2)C[C@@H]3C)ccn1 [compound 251] | > 0.63 | 6.31e-09 | 116 | – | – |
| CCNc1cc(-c2cnn3c2C(=O)N(c2ccc(C(F)(F)F)c(Cl)c2)C[C@@H]3C)ccn1 [compound 255] | 0.79 | 1.51e-09 | 107 | – | – |
| CCNc1cc(-c2cnn3c2C(=O)N(c2ccc(C(F)(F)F)c(C)c2)C[C@@H]3C)ccn1 [compound 256] | ≥ 2.5 | 3.63e-09 | 108 | – | – |
| CCNc1cc(-c2cnn3c2C(=O)N(c2ccc(Cl)c(Cl)c2)C[C@@H]3C)ccn1 [compound 257] | ≥ 2.5 | 3.63e-09 | 108 | – | – |
| CC(C)Nc1cc(-c2cnn3c2C(=O)N(c2ccc(C(F)(F)F)cc2)C[C@@H]3C)ccn1 [compound 266] | – | 5.25e-08 | 106 | 173.08 °C | – |
| Cc1cc(N2C[C@H](C)n3ncc(-c4ccnc(NC(C)C)c4)c3C2=O)ccc1C(F)(F)F [compound 267] | – | 2.24e-08 | 107 | 131.3 °C | – |
